Consider 14 molecules from ChEMBL document CHEMBL3991601, “The target landscape of clinical kinase drugs” (Science, 2017).

Active and inactive are the calls of the source.

For one assay, the target named is T1, Activin receptor type-1 (Homo sapiens, UniProt Q04771).
T1 sequence (Q04771 whole entry): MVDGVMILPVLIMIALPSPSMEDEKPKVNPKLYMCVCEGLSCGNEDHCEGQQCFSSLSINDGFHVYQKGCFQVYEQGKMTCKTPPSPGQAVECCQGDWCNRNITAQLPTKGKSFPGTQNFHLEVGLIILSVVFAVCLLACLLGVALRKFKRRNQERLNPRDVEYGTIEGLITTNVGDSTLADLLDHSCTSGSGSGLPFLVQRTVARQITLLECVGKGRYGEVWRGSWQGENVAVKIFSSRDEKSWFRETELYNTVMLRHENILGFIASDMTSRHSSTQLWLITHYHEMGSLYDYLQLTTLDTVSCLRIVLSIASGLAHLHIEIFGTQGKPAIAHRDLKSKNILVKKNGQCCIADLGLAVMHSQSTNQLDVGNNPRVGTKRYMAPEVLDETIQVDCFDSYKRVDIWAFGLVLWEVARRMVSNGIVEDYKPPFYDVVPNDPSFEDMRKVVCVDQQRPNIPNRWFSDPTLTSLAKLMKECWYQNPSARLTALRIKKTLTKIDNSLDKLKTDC

For assay [1], the target named is RAC-alpha serine/threonine-protein kinase (Homo sapiens, UniProt P31749).
Chain of RAC-alpha serine/threonine-protein kinase (P31749 whole entry): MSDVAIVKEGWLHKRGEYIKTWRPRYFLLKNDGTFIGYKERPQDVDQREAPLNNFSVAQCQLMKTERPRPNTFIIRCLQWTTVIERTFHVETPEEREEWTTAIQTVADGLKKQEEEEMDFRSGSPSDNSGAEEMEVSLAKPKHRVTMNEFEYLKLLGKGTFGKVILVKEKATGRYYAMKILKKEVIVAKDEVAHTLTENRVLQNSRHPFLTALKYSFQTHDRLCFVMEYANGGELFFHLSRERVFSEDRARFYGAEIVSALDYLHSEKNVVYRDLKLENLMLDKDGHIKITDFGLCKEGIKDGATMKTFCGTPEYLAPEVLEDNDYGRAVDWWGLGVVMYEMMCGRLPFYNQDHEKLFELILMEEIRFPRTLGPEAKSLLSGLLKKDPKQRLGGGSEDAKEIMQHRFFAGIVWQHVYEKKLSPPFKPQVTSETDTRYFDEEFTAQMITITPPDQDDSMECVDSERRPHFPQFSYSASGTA
In assay [2] the target is Mitotic checkpoint serine/threonine-protein kinase BUB1 (Homo sapiens, UniProt O43683).
Chain of Mitotic checkpoint serine/threonine-protein kinase BUB1 (O43683 whole entry): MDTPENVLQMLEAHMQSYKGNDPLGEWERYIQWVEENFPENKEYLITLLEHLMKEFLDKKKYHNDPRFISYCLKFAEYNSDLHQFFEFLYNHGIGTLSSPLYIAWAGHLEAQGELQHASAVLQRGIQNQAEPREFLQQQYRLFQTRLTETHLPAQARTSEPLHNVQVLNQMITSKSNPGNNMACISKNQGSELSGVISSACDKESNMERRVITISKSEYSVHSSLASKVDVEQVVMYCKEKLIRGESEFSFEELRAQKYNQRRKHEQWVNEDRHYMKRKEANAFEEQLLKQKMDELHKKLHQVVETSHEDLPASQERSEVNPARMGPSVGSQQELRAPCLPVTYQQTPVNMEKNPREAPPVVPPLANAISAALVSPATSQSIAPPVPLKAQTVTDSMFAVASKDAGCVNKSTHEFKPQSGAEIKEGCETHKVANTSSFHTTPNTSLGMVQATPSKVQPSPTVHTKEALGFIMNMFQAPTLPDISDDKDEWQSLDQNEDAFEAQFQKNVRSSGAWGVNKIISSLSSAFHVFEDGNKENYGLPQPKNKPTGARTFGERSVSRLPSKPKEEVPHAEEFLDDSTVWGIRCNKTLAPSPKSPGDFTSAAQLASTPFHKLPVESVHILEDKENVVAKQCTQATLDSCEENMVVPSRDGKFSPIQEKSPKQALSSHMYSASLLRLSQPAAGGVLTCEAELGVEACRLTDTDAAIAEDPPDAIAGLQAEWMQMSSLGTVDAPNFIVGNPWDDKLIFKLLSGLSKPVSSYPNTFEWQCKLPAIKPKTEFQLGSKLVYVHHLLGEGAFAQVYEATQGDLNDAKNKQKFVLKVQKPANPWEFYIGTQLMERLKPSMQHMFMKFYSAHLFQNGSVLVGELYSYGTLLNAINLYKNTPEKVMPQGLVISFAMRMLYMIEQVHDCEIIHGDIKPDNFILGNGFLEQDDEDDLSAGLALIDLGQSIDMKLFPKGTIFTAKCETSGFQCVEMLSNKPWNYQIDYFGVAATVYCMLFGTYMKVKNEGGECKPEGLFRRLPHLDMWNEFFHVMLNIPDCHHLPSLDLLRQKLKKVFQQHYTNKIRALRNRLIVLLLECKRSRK
The target of assay [3] is Inosine-5'-monophosphate dehydrogenase 2 (Homo sapiens, UniProt P12268).
Assay [4] has as its target T2, Glycogen phosphorylase, brain form (Homo sapiens, UniProt P11216).
T2 sequence (P11216 whole entry): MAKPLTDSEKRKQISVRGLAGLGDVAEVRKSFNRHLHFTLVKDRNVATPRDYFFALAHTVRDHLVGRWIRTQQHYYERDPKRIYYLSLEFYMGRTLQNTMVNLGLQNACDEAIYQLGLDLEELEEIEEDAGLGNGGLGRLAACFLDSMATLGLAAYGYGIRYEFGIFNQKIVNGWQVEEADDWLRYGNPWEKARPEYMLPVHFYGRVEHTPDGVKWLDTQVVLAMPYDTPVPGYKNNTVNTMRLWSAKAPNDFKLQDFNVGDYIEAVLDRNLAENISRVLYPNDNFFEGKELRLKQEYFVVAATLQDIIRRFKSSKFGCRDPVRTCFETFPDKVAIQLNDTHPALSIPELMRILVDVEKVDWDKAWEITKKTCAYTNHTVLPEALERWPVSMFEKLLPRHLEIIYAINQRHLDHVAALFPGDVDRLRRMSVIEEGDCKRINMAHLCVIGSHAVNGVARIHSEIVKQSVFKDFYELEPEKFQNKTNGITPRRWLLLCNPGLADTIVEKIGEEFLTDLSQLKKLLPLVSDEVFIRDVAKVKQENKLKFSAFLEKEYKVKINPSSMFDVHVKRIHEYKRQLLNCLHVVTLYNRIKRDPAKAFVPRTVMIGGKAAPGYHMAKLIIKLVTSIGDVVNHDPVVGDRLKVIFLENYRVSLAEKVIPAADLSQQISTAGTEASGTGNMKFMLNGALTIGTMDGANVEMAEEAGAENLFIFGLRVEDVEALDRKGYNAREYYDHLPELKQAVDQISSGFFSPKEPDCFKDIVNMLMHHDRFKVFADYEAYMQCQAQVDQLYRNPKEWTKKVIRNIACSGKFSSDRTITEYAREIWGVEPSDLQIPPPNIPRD

For assay [5], the target named is TRAF2 and NCK-interacting protein kinase (Homo sapiens, UniProt Q9UKE5).
Chain of TRAF2 and NCK-interacting protein kinase (Q9UKE5 whole entry): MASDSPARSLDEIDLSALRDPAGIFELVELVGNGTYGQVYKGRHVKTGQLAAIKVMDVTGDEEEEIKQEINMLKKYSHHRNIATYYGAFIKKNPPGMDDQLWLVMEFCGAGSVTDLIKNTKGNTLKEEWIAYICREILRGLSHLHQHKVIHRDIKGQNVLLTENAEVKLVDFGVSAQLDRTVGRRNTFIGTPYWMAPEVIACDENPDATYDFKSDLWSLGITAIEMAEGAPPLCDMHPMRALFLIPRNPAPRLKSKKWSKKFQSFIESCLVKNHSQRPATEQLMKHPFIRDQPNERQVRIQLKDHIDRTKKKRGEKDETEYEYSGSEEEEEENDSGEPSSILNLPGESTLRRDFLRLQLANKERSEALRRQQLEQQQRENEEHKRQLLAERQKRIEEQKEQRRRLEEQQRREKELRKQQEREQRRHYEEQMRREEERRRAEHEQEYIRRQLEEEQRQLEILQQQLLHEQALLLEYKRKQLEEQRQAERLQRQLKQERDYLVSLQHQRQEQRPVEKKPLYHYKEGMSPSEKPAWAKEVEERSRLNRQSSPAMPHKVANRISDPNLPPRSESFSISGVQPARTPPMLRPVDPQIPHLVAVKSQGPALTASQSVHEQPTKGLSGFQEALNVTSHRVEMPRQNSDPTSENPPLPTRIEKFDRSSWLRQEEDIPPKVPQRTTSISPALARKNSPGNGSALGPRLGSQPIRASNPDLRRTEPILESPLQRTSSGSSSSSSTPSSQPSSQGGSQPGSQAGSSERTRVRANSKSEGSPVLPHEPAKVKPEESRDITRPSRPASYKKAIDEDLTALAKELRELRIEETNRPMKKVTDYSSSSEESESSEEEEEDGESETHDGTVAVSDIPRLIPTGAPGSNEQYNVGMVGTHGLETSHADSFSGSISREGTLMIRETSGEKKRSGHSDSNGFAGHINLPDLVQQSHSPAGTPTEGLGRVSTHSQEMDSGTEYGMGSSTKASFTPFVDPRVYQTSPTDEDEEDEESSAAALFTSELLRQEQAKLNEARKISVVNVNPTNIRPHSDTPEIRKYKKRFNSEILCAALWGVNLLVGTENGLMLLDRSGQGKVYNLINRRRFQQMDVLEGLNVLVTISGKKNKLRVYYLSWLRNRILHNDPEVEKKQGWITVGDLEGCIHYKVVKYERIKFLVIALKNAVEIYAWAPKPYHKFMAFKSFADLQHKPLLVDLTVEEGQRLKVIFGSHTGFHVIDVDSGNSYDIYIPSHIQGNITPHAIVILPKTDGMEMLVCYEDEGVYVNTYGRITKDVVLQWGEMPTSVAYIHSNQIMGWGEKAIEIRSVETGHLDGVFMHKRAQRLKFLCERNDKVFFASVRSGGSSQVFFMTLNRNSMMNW
Assay [6] addresses T3, Serine/threonine-protein kinase ULK3 (Homo sapiens, UniProt Q6PHR2).
T3 sequence (Q6PHR2 whole entry): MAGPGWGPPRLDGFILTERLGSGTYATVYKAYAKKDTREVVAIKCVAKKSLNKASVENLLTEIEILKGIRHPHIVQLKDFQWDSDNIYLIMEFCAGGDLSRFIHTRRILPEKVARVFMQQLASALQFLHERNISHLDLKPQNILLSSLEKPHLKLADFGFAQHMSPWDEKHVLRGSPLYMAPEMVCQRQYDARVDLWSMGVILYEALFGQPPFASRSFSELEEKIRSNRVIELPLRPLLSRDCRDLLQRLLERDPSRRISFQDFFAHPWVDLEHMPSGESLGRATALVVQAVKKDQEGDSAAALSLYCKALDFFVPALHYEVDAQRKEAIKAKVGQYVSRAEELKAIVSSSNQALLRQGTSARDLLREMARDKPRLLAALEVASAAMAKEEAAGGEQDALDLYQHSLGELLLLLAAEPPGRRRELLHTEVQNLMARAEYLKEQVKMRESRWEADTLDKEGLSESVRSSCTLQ

Assay [7] has as its target T4, ATP-dependent RNA helicase DDX42 (Homo sapiens, UniProt Q86XP3).
T4 sequence (Q86XP3 whole entry): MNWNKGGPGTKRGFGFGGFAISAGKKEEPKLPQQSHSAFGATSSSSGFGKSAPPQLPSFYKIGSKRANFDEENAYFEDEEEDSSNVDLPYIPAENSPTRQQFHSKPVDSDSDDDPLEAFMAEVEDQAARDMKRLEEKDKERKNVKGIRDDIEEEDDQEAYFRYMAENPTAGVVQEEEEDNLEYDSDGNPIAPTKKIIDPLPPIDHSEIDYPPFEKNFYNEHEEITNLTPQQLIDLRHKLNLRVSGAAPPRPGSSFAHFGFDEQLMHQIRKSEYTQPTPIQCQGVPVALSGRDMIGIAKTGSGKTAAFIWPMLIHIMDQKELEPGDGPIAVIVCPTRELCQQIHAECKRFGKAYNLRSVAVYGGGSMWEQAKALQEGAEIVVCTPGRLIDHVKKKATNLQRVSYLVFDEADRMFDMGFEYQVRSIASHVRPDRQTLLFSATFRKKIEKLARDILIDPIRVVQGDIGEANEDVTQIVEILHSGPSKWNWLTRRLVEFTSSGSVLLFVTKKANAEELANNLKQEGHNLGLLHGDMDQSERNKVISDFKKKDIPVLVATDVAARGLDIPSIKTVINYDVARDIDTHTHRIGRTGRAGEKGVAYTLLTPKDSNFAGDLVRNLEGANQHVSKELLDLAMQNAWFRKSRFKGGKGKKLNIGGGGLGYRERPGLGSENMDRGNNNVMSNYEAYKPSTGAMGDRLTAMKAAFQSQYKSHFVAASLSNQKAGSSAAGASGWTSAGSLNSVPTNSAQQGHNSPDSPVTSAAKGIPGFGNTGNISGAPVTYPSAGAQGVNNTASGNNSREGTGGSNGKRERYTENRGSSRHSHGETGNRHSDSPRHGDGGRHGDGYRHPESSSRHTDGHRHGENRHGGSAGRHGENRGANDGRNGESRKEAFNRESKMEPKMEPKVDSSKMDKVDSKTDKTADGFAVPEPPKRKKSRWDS

For orientation: Kd means the concentration at which binding is half-saturated.
Further: in the data inactive means no Kd found up to 30 µM.

As to `O=C(Nc1ccc(OC(F)(F)F)cc1)c1sccc1NCc1ccnc2ccccc12` [OSI-930], the Kd (on Activin receptor type-1; in assay [1]; in assay [2]; in assay [3]; in assay [4]; in assay [5]) was > 30 µM (inactive) throughout. The Kd in assay [6] was > 30 µM (inactive).

Regarding `C=CCN(/C=C1/C(=O)O[C@H](COC)[C@@]2(C)C1=C(O)C(=O)C1=C2[C@H](OC(C)=O)C[C@]2(C)C(=O)CC[C@@H]12)CC=C` [SONOLISIB], the Kd (on Activin receptor type-1; in assay [1]; in assay [4]; in assay [5]; in assay [6]) was > 30 µM (inactive) throughout.

As to `COc1cc2c(N3CCN(C(=O)Nc4ccc(OC(C)C)cc4)CC3)ncnc2cc1OCCCN1CCCCC1` [TANDUTINIB], the Kd in assay [2], in assay [7] and in assay [4] was > 30 µM (inactive) in each case.

As for `CN1CCN(c2nc(C3=C(c4c[nH]c5ccccc45)C(=O)NC3=O)c3ccccc3n2)CC1` [SOTRASTAURIN], the Kd at Activin receptor type-1 was > 30 µM (inactive); in assay [1] it was > 30 µM (inactive); in assay [2], > 30 µM (inactive); in assay [4] it was > 30 µM (inactive); in assay [5], 0.038 µM; in assay [6], > 30 µM (inactive).

With `Cc1c(Cn2c(C)nc3c(C(=O)O)cc(N4CCOCC4)cc32)cccc1C(F)(F)F` [GSK-2636771], the Kd (at Activin receptor type-1; in assay [1]; in assay [2]; in assay [3]; in assay [4]; in assay [5]) was > 30 µM (inactive) throughout. The Kd in assay [6] is > 30 µM (inactive).

In the case of `Cc1cc(C(=O)Nc2cc(Oc3ccc4nc(NC(=O)C5CC5)cn4n3)ccc2C)n(C)n1` [TAK-593], the Kd (on Activin receptor type-1; in assay [1]; in assay [2]; in assay [3]; in assay [4]; in assay [5]) was > 30 µM (inactive) throughout. In assay [6], the Kd was > 30 µM (inactive).

`Cc1cc(-c2cc(OC(=O)c3ccccc3)ccc2Cl)cc2nnc(Nc3ccc(OCCN4CCCC4)cc3)nc12` [TG100-801]: the Kd (on Activin receptor type-1; in assay [1]; in assay [2]; in assay [4]; in assay [5]; in assay [6]) was > 30 µM (inactive) each time.

Turning to `c1cc(OCCN2CCCCC2)cc(-c2n[nH]c3ccc(-c4nc[nH]n4)cc23)c1` [CC-401], the Kd was > 30 µM (inactive) on Activin receptor type-1; > 30 µM (inactive) in assay [1]; > 30 µM (inactive) in assay [2]; > 30 µM (inactive) in assay [3]; > 30 µM (inactive) in assay [4]; 2.34 µM (active) in assay [5]. Moreover, the Kd in assay [6] is > 30 µM (inactive).

`CC[C@@](C)(Nc1ccnc(-c2c[nH]c3ncccc23)n1)C(=O)NCC(F)(F)F` [DECERNOTINIB]: the Kd (on Activin receptor type-1; in assay [1]; in assay [2]; in assay [3]; in assay [4]; in assay [5]) was > 30 µM (inactive) throughout. Also, the Kd in assay [6] was > 30 µM (inactive).

For the molecule `COc1cc(F)c(F)c(Nc2ccc(I)cc2F)c1NS(=O)(=O)C1(C[C@H](O)CO)CC1` [REFAMETINIB], the Kd (at Activin receptor type-1; in assay [1]; in assay [2]; in assay [3]; in assay [4]; in assay [5]) was > 30 µM (inactive) throughout. For the same molecule, in assay [6], the Kd is > 30 µM (inactive).

With `COc1cc(Nc2ncc(F)c(Nc3ccc4c(n3)N(COP(=O)(O)O)C(=O)C(C)(C)O4)n2)cc(OC)c1OC` [FOSTAMATINIB], the Kd (on Activin receptor type-1; in assay [1]; in assay [2]; in assay [3]; in assay [4]; in assay [5]) was > 30 µM (inactive) throughout. The Kd in assay [6] is > 30 µM (inactive).

Regarding `O=C(O)c1ccc2c(c1)nc(Nc1cccc(Cl)c1)c1ccncc12` [SILMITASERTIB], the Kd (at Activin receptor type-1; in assay [1]; in assay [3]; in assay [4]; in assay [5]; in assay [6]) was > 30 µM (inactive) throughout.

As to `CCc1nc(C(N)=O)c(Nc2ccc(N3CCC(N4CCN(C)CC4)CC3)c(OC)c2)nc1NC1CCOCC1` [GILTERITINIB], the Kd on Activin receptor type-1 is 0.039 µM (active); in assay [1], > 30 µM (inactive); in assay [2] it was 0.191 µM (active); in assay [3], > 30 µM (inactive); in assay [4] it was > 30 µM (inactive); in assay [5], > 30 µM (inactive). Moreover, in assay [6], the Kd was 0.006 µM (active).

Take `O[C@H]1CC[C@H](Nc2ncc3nc(Nc4c(F)cc(F)cc4F)n([C@H]4CCOC4)c3n2)CC1` [TANZISERTIB]: the Kd (on Activin receptor type-1; in assay [1]; in assay [2]; in assay [4]; in assay [5]; in assay [6]) was > 30 µM (inactive) each time.
